{"source": "patent US20100297675A1", "about": "“SUBSTRATE AND METHOD FOR CULTURING BREAST CELLS” (priority 2008, published 2010)", "key": {"breast cancer cells": {"tested_on": "breast cancer cells", "conditions": "Matrigel 3D culture system; reported; cited from earlier work"}, "[1]": {"tested_on": "MCF-7 malignant breast cells", "experiment": "MCF-7 malignant cells cultured in porous PDMS substrate, treated with inhibitor, confocal fluorescence imaging", "format": "cell-based", "conditions": "MCF-7 in porous PDMS, 4 μM on alternate days for 15 days, F-actin/DAPI stain", "text": "Porous polydimethylsiloxane (PDMS) substrates were generated by mixing a PDMS pre-polymer and a curing agent using the Sylgard 182 kit available from Dow Corning in a ratio of 10 to 1. The mixture was closely packed with sugar crystals of size ranging from 212-250 micrometers, which was then filled in a mold and cured at 100 degrees for one hour. The sugar in the cured polymer was washed out in an ultrasonic bath, forming porous PDMS substrates. The resulting porous PDMS was released from the mold and assembled into multi-well plate for cell culture. Malignant breast cells MCF-7 were seeded in wells having the porous PDMS substrates described in Example 1. 10,000 cells were seeded and cultured in EMEM cell culture medium with 10% Fetal Bovine Serum, 5% pen/strep, and 10 μg/ml of insulin. The medium was changed on alternate days. Following two weeks of culture, the cells were stained with Rhodamine phalloidin (F-actin staining) and DAPI nuclei counter stain and imaged with confocal fluorescence microscope as shown in FIG. 9. […] Differences in cellular morphology often contribute to differences in cellular function. […]"}, "[2]": {"tested_on": "MCF-7 malignant breast cells", "experiment": "MCF-7 malignant cells cultured on 2D TCT culture surface, treated with inhibitor, confocal fluorescence imaging", "format": "cell-based", "conditions": "MCF-7 on TCT 2D surface; 4 μM on alternate days for 15 days; E-cadherin/DAPI stain; FIGS. 11A-C", "protocol": "Differences in cellular morphology often contribute to differences in cellular function. To understand the difference of cellular functions between breast cells cultured in a porous substrate and on a 2D culture surface, 10,000 MCF-7 malignant cell were seeded and cultured in porous PDMS (as described in Example 1) and a TCT culture surface (tissue culture treated polystyrene, “TCT”, Coming Inc) under the same conditions. The cells were treated with 4 μM of PD98059 (MAPK inhibitor) and 4 μM of LY294002 (PI3K inhibitor) on alternate days for 15 days. […] In FIGS. 11A-C, the cells were stained for E-cadherin and counterstained with a DAPI nuclei stain. In FIG. 11A, untreated cells are shown at 14 days of culture. In FIG. 11B, cells treated with PD98059 are shown at 14 days of culture. In FIG. 11C, cells treated with LY294002 are shown at 14 days of culture. The green (E-cadherin) and blue (nuclei) stains cannot be seen in the black and white reproductions presented herein."}}}
{"smiles": "COc1cccc(-c2cc(=O)c3ccccc3o2)c1N", "note": "[PD98059]", "values": [{"measurement": "reversal of malignant behaviors of breast cancer cells", "setting": "breast cancer cells", "result": "reverse malignant behaviors of breast cancer cells to certain degrees"}, {"measurement": "colony size", "setting": "[1]; FIGS. 12A-C", "result": "significantly reduced the colony size"}, {"measurement": "reversion of malignant phenotype (mass structure to acini structure)", "setting": "[1]; FIGS. 13A-C", "result": "reversed malignant phenotype from mass structure to normal acini structure"}, {"measurement": "noticeable difference for the cells cultured on TCT surface (reversion of malignant phenotype or other change)", "setting": "[2]", "result": "failed to induce noticeable difference"}]}
